Measured values: patent US20200331850A1, “NOVEL SULFONAMIDE CARBOXAMIDE COMPOUNDS” (Inflazome Limited, priority 2017, published 2020)
Structures can show the parent of a compound that is named as a salt.

Molecular target: NLRP3 (Homo sapiens, UniProt Q96P20)
Experiment: Human whole blood IL1β release assay (LPS + nigericin, AlphaLisa IL-1β)
Type: cell-based
Design: Plate out 80 μl of whole blood containing 1βg/ml of LPS in 96-well, clear bottom cell culture plate; from tissue; host or cells: human whole blood from healthy donors, LPS-primed and nigericin-stimulated
Settings: NLRP3 inhibitory activity in human whole blood, IL-1β release, 10 μM nigericin, read-out: HWB IC50
Protocol: For systemic delivery, the ability to inhibit NLRP3 when the compounds are present within the bloodstream is of great importance. For this reason, the NLRP3 inhibitory activity of a number of compounds in human whole blood was investigated in accordance with the following protocol.
Human whole blood in Li-heparin tubes was obtained from healthy donors from a volunteer donor panel. • 1. Plate out 80 μl of whole blood containing 1βg/ml of LPS in 96-well, clear bottom cell culture plate (Corning #3585) • 2. Add 10 μl compound (8 points half-log dilution with 10 μM top dose) or vehicle (DMSO 0.1% FAC) to the appropriate wells • 3. Incubate for 3 hrs at 37° C., 5% CO2 • 4. Add 10 μl Nigericin (Sigma # N7143) (10 μM FAC) to all wells • 5. Incubate for 1 hr at 37° C., 5% CO2 • 6. At the end of the incubation period, spin plates at 300×g for 5 mins to pellet cells and remove 20 μl of supernatant and add to 96-well v-bottom plates for IL-1β analysis (note: these plates containing the supernatants can be stored at −80° C. to be analysed at a later date) • 7. IL-1β was measured according to the manufacturer protocol (Perkin Elmer-AlphaLisa IL-1 Kit AL220F-5000) • 8. IC50 data is fitted to a non-linear regression equation (log inhibitor vs response-variable slope 4-parameters)

NLRP3, sequence (Q96P20 whole entry): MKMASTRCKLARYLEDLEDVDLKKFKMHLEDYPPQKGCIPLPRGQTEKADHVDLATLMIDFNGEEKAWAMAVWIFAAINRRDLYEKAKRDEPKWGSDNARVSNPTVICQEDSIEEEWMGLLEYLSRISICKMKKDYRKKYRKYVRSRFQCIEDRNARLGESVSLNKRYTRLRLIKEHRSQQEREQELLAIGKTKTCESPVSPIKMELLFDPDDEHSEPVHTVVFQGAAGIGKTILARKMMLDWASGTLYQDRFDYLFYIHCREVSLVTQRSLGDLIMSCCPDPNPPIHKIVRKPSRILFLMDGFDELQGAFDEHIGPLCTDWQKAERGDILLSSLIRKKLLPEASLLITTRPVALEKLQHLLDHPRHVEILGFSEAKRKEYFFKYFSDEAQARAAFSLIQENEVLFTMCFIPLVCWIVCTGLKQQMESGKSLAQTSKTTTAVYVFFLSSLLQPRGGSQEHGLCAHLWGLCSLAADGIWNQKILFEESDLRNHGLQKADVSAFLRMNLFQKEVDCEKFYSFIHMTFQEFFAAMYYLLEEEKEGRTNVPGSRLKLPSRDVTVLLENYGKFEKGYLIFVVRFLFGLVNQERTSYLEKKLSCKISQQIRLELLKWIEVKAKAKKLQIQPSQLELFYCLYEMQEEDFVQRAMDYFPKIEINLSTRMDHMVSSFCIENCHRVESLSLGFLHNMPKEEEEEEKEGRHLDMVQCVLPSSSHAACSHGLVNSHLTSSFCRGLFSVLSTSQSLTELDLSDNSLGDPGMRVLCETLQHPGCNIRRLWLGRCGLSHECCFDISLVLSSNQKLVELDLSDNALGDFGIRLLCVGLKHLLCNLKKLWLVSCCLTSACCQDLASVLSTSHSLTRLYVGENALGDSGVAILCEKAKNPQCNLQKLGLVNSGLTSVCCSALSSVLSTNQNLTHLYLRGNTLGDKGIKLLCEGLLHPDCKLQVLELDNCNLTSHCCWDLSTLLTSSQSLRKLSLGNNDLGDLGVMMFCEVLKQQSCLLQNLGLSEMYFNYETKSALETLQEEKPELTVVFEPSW

| Structure (SMILES) | IC50 |
| --- | --- |
| COc1cc(-c2ccc3c(c2NC(=O)NS(=O)(=O)CCOC(C)C)CCO3)ccn1 [Example 62, 2-Isopropoxy-N-((5-(2-methoxypyridin-4-yl)-2,3-dihydro-benzofuran-4-yl)carbamoyl)ethanesulfonamide, sodium salt] | ≤ 1000 nM |
| CN(CCCS(=O)(=O)NC(=O)Nc1c2c(cc3c1CCC3)CCC2)Cc1ccccc1 [Example 67, 3-(Benzyl(methyl)amino)-N-((1,2,3,5,6,7-hexahydro-s-indacen-4-yl)carbamoyl)propane-1-sulfonamide, potassium salt] | ≤ 10000 nM |
| CON(C)CCCS(=O)(=O)NC(=O)Nc1c2c(cc3c1CCC3)CCC2 [Example 70, N-((1,2,3,5,6,7-Hexahydro-s-indacen-4-yl)carbamoyl)-3-(methoxy(methyl)amino)propane-1-sulfonamide, Potassium Salt] | ≤ 5000 nM |
| CC1(C)C2CC[C@@]1(CS(=O)(=O)NC(=O)Nc1c3c(cc4c1CCC4)CCC3)/C(=N/O)C2 [Example 71, N-((1,2,3,5,6,7-Hexahydro-s-indacen-4-yl)carbamoyl)-1-((1S,E)-2-(hydroxyimino)-7,7-dimethylbicyclo[2.2.1]heptan-1-yl)methane sulfonamide, Potassium Salt] | ≤ 10000 nM |
| O=C(Nc1c2c(cc3c1CCC3)CCC2)NS(=O)(=O)CCCN1CCC1 [Example 72, 3-(Azetidin-1-yl)-N-((1,2,3,5,6,7-hexahydro-s-indacen-4-yl)carbamoyl)propane-1-sulfonamide, Potassium Salt] | ≤ 1000 nM |
| C#CCN(C)CCCS(=O)(=O)NC(=O)Nc1c2c(cc3c1CCC3)CCC2 [Example 73] | ≤ 5000 nM |
| CN1CCOC(CS(=O)(=O)NC(=O)Nc2c3c(cc4c2CCC4)CCC3)C1 (stereo not shown) [Example 74, N-((1,2,3,5,6,7-Hexahydro-s-indacen-4-yl)carbamoyl)-1-(4-methylmorpholin-2-yl)methanesulfonamide, Potassium Salt] | ≤ 5000 nM |
| CC(CCS(=O)(=O)NC(=O)Nc1c2c(cc3c1CCC3)CCC2)N(C)C (stereo not shown) [Example 78, 3-(Dimethylamino)-N-((1,2,3,5,6,7-hexahydro-s-indacen-4-yl)carbamoyl)butane-1-sulfonamide, potassium salt] | ≤ 1000 nM |
| CN1CC2(COC(CS(=O)(=O)NC(=O)Nc3c4c(cc5c3CCC5)CCC4)C2)C1 (stereo not shown) [Example 80, N-((1,2,3,5,6,7-Hexahydro-s-indacen-4-yl)carbamoyl)-1-(2-methyl-6-oxa-2-azaspiro[3.4]octan-7-yl)methanesulfonamide] | ≤ 5000 nM |
| CN(C)CC(C)(C)CS(=O)(=O)NC(=O)Nc1c2c(cc3c1CCC3)CCC2 [Example 81, 3-(Dimethylamino)-N-((1,2,3,5,6,7-hexahydro-s-indacen-4-yl)carbamoyl)-2,2-dimethylpropane-1-sulfonamide] | ≤ 5000 nM |
| CN1CCCC(CS(=O)(=O)NC(=O)Nc2c3c(cc4c2CCC4)CCC3)C1 (stereo not shown) [Example 83, N-((1,2,3,5,6,7-Hexahydro-s-indacen-4-yl)carbamoyl)-1-(1-methylpiperidin-3-yl)methanesulfonamide] | ≤ 1000 nM |
| CCN1CCCC(CS(=O)(=O)NC(=O)Nc2c3c(cc4c2CCC4)CCC3)C1 (stereo not shown) [Example 84, 1-(1-Ethylpiperidin-3-yl)-N-((1,2,3,5,6,7-hexahydro-s-indacen-4-yl)carbamoyl)methanesulfonamide] | ≤ 1000 nM |
| CC1CCN1CCS(=O)(=O)NC(=O)Nc1c2c(cc3c1CCC3)CCC2 (stereo not shown) [Example 89, N-((1,2,3,5,6,7-Hexahydro-s-indacen-4-yl)carbamoyl)-2-(2-methylazetidin-1-yl)ethane-1-sulfonamide] | ≤ 1000 nM |
| O=C(Nc1c2c(cc3c1CCC3)CCC2)NS(=O)(=O)CCN1CC(F)C1 [Example 90, 2-(3-Fluoroazetidin-1-yl)-N-((1,2,3,5,6,7-hexahydro-s-indacen-4-yl)carbamoyl)ethane-1-sulfonamide] | ≤ 5000 nM |
| CC(CS(=O)(=O)NC(=O)Nc1c2c(cc3c1CCC3)CCC2)N1CCC1 (stereo not shown) [Example 91, 2-(Azetidin-1-yl)-N-((1,2,3,5,6,7-hexahydro-s-indacen-4-yl)carbamoyl)propane-1-sulfonamide] | ≤ 1000 nM |
| COC(=O)CCS(=O)(=O)NC(=O)Nc1c2c(cc3c1CCC3)CCC2 [Example 92, Methyl 3-(N-((1,2,3,5,6,7-hexahydro-s-indacen-4-yl)carbamoyl)sulfamoyl)propanoate] | ≤ 7500 nM |
| CC(C)N1CCCC(CS(=O)(=O)NC(=O)Nc2c3c(cc4c2CCC4)CCC3)C1 (stereo not shown) [Example 93, N-((1,2,3,5,6,7-Hexahydro-s-indacen-4-yl)carbamoyl)-1-(1-isopropylpiperidin-3-yl)methanesulfonamide] | ≤ 1000 nM |
| CC(C)C(=O)N(C)CCCS(=O)(=O)NC(=O)Nc1c2c(cc3c1CCC3)CCC2 [Example 95, N-(3-(N-((1,2,3,5,6,7-Hexahydro-s-indacen-4-yl)carbamoyl)sulfamoyl)propyl)-N-methylisobutyramide] | ≤ 5000 nM |
| CN(C)C(=O)CCS(=O)(=O)NC(=O)Nc1c2c(cc3c1CCC3)CCC2 [Example 97, 3-(N-((1,2,3,5,6,7-Hexahydro-s-indacen-4-yl)carbamoyl)sulfamoyl)-N,N-dimethylpropanamide] | ≤ 7500 nM |
| CC1(C)CCN1CCS(=O)(=O)NC(=O)Nc1c2c(cc3c1CCC3)CCC2 [Example 102, 2-(2,2-Dimethylazetidin-1-yl)-N-((1,2,3,5,6,7-hexahydro-s-indacen-4-yl)carbamoyl)ethane-1-sulfonamide] | ≤ 1000 nM |
| CC1CC(C)N1CCS(=O)(=O)NC(=O)Nc1c2c(cc3c1CCC3)CCC2 (stereo not shown) [Example 103, 2-(2,4-Dimethylazetidin-1-yl)-N-((1,2,3,5,6,7-hexahydro-s-indacen-4-yl)carbamoyl)ethane-1-sulfonamide] | ≤ 1000 nM |
| CC(C)C1CCN1CCS(=O)(=O)NC(=O)Nc1c2c(cc3c1CCC3)CCC2 (stereo not shown) [Example 104, N-((1,2,3,5,6,7-Hexahydro-s-indacen-4-yl)carbamoyl)-2-(2-isopropylazetidin-1-yl)ethane-1-sulfonamide] | ≤ 1000 nM |
| CN1CCCC1CS(=O)(=O)NC(=O)Nc1c2c(cc3c1CCC3)CCC2 (stereo not shown) [Example 105, N-((1,2,3,5,6,7-Hexahydro-s-indacen-4-yl)carbamoyl)-1-(1-methylpyrrolidin-2-yl)methanesulfonamide] | ≤ 1000 nM |
| CCN1CCCC1CS(=O)(=O)NC(=O)Nc1c2c(cc3c1CCC3)CCC2 (stereo not shown) [Example 106, 1-(1-Ethylpyrrolidin-2-yl)-N-((1,2,3,5,6,7-hexahydro-s-indacen-4-yl)carbamoyl)methanesulfonamide] | ≤ 1000 nM |
| CC(C)N1CCCC1CS(=O)(=O)NC(=O)Nc1c2c(cc3c1CCC3)CCC2 (stereo not shown) [Example 107, N-((1,2,3,5,6,7-Hexahydro-s-indacen-4-yl)carbamoyl)-1-(1-isopropylpyrrolidin-2-yl)methanesulfonamide] | ≤ 1000 nM |
| CC(C)N1CCCCC1CS(=O)(=O)NC(=O)Nc1c2c(cc3c1CCC3)CCC2 (stereo not shown) [Example 109, N-((1,2,3,5,6,7-Hexahydro-s-indacen-4-yl)carbamoyl)-1-(1-isopropylpiperidin-2-yl)methanesulfonamide] | ≤ 1000 nM |
| CCN1CCCCC1CS(=O)(=O)NC(=O)Nc1c2c(cc3c1CCC3)CCC2 (stereo not shown) [Example 110, 1-(1-Ethylpiperidin-2-yl)-N-((1,2,3,5,6,7-hexahydro-s-indacen-4-yl)carbamoyl)methanesulfonamide] | ≤ 1000 nM |
| CC(C)n1ccc(CS(=O)(=O)NC(=O)Nc2c3c(cc4c2CCC4)CCC3)n1 [Example 111, N-((1,2,3,5,6,7-Hexahydro-s-indacen-4-yl)carbamoyl)-1-(1-isopropyl-1H-pyrazol-3-yl)methanesulfonamide] | ≤ 7500 nM |
